The target of assay [1] is AXL (h) kinase (Homo sapiens (Human), UniProt P30530). Kind of assay: AXL (h) kinase activity test (EZ Reader mobility shift, FLPeptide30). It counts as biochemical. The conditions noted are these: ATP 100 μM, AXL 1 nM. As to the method: The effect of the disclosed compounds as protein kinase inhibitors can be evaluated by the following experiments. The AXL (h) kinase activity of the compounds of the invention is tested by the following methods:
Reagents used in the experiment were AXL (Carna Bioscience, Cat No.: 08-107) and FLPeptide30 (PerkinElmer, Cat No.: 760430). The instruments involved were thermotank (Thermo Scientific), oscillator (QILINBEIER), EZ Reader (PerkinElmer, Cat No.: 122919), Non-contact stage pipetting system (Labcyte Inc., Cat No.: Echo 550), and non-contact nanoliter pipetting system (TECAN, Cat No.: EVO200).
Compound dilution: 1) Dissolve the compound in DMSO to the appropriate concentration; 2) Using TECAN EVO200 to dilute 10 concentrations in 384 microplates by three times gradient, the highest concentration is 1 mM; Echo550 was used to transfer 20 nL solution from the dilution plate to the test plate.
2) Add 15 μL solution 1 to each well of the test plate and incubate at room temperature for 30 minutes.
4) Add 5 μL solution 2 to start the reaction, and the final volume of each well is 20 μL.
5) Incubated at 25° C. for 90 min, and then added 75 μL stop solution (containing 0.5 M EDTA) to terminate the reaction.
6) The sample of each well was analyzed using EZ reader.
1) Based on the measured conversion rate (CR), the Remaining Activity (%) of the kinase was calculated according to the following function:
2) XLFit (Equation 201) software was used to fit IC50.
The above methods can be used to obtain the inhibitory IC50 and/or inhibitory constant Ki.

The subject of assay [2] is Ba/F3 AXL cells. The assay is described as follows: Cell activity test: growth inhibition of Ba/F3 AXL cell line (CTG, 72 h). It counts as cell-based. The conditions noted are these: Mus musculus, BaF3. The procedure: This experiment was conducted by detecting the inhibitory effect of compounds on the growth of Ba/F3 AXL cell line and Ba/F3 parental cell line. Cells in logarithmic growth stage were harvested and counted by platelet counter. Trypan blue rejection method was used to detect cell viability to ensure that the cell viability was above 90%. Adjust cell concentration; 90 μL cell suspension was added to 96-well plates, respectively; Cells in 96-well plates were cultured overnight at 37° C., 5% CO2 and 95% humidity. A 10-fold drug solution was prepared, with the highest concentration of 10 μM, and a total of 9 concentrations were diluted at 3.16 times the ratio. 10 μL drug solution was added to each well of the 96-well plate inoculated with cells, and three wells were set for each drug concentration; 96-well plates were incubated at 37° C., 5% CO2 and 95% humidity for 72 h, and CTG analysis was performed. Thaw the CTG reagent and balance the cell plates to room temperature for 30 minutes. Add the same volume of CTG solution to each well and vibrate on a fixed-rail shaker for 5 minutes to crack the cells. Place the cell plates at room temperature for 20 minutes to stabilize the cold light signal and read the cold light value. The GraphPad Prism 5.0 software was used to analyze the data, and the nonlinear S-curve regression was used to fit the data to obtain the dose-effect curve, and the IC50 value was calculated accordingly. Cell survival rate (%)=(Lum drug to be tested −Lum culture medium control)/(Lum cell control−Lum culture medium control)×100%.

Bounds are passed on as bounds.

Sequence of AXL (h) kinase (P30530 473-894): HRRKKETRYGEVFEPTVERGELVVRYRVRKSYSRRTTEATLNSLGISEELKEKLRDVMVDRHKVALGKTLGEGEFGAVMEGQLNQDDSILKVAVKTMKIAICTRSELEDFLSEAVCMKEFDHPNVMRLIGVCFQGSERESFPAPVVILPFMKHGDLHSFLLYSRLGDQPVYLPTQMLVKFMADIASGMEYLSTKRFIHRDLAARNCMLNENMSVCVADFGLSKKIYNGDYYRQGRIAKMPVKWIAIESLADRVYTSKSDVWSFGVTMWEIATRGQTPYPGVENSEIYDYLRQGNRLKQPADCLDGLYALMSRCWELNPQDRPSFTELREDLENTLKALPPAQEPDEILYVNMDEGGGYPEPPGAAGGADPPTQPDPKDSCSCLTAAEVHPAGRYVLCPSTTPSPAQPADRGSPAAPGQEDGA

Broadly, the IC50 is the point on the concentration scale where inhibition reaches its midpoint. In the case of `Nc1ncnn2c(C3CCNCC3)cc(-c3ccc(NC(=O)c4c5n(n(-c6ccccc6)c4=O)CCOC5)cc3)c12` [example 2, N-(4-(4-amino-7-(piperidin-4-yl)pyrrolo[2,1-f][1,2,4]triazin-5-yl)phenyl)-2-oxo-1-phenyl-2,4,6,7-tetrahydro-1H-pyrazolo[5,1-c][1,4]oxazine-3-carboxamide], the half-inhibitory concentration (IC50) in assay [1] is more than 100 nM; in assay [2], 50 to 100 nM.
In the case of `Nc1ncnn2c(C3CCNCC3)cc(-c3ccc(NC(=O)c4c5n(n(-c6ccccc6)c4=O)CCC5)cc3)c12` [example 5, N-(4-(4-amino-7-(piperidin-4-yl)pyrrolo[2,1-f][1,2,4]triazin-5-yl)phenyl)-2-oxo-1-phenyl-2,4,5,6-tetrahydro-1H-pyrrolo[1,2-b]pyrazole-3-carboxamide], the IC50 in assay [1] and in assay [2] was more than 100 nM throughout.
In assay [2], `CC(C)C(=O)N1CCC(c2cc(-c3ccc(NC(=O)c4c5n(n(-c6ccccc6)c4=O)CCC5)cc3)c3c(N)ncnn23)CC1` [example 6, N-(4-(4-amino-7-(1-isobutyrylpiperidin-4-yl)pyrrolo[2,1-f][1,2,4]triazin-5-yl)phenyl)-2-oxo-1-phenyl-2,4,5,6-tetrahydro-1H-pyrrolo[1,2-b]pyrazole-3-carboxamide] showed an IC50 of less than 5 nM.
Regarding `CC(C)C(=O)N1CCC(c2cc(-c3ccc(NC(=O)c4c5n(n(-c6ccccn6)c4=O)CCOC5)cc3F)c3c(N)ncnn23)CC1` [example 9, N-(4-(4-amino-7-(1-isobutyrylpiperidin-4-yl)pyrrolo[2,1-f][1,2,4]triazin-5-yl)-3-fluorophenyl)-2-oxo-1-(pyridin-2-yl)-2,4,6,7-tetrahydro-1H-pyrazolo[5,1-c][1,4]oxazine-3-carboxamide], the IC50 in assay [1] and in assay [2] was 5 to 50 nM each time.
In the case of `CC(C)(F)C(=O)N1CCC(c2cc(-c3ccc(NC(=O)c4c5n(n(-c6ccccn6)c4=O)CCOC5)cc3)c3c(N)ncnn23)CC1` [example 12, N-(4-(4-amino-7-(1-(2-fluoro-2-methylpropanoyl)piperidin-4-yl)pyrrolo[2,1-f][1,2,4]triazin-5-yl)phenyl)-2-oxo-1-(pyridin-2-yl)-2,4,6,7-tetrahydro-1H-pyrazolo[5,1-c][1,4]oxazine-3-carboxamide], the concentration for half-maximal inhibition (IC50) in assay [2] was 5 to 50 nM.
On to `CC(C)(O)C(=O)N1CCC(c2cc(-c3ccc(NC(=O)c4c5n(n(-c6ccccn6)c4=O)CCCC5)cc3)c3c(N)ncnn23)CC1` [example 13, N-(4-(4-amino-7-(1-(2-hydroxy-2-methylpropanoyl)piperidin-4-yl)pyrrolo[2,1-f][1,2,4]triazin-5-yl)phenyl)-2-oxo-1-(pyridin-2-yl)-1,2,4,5,6,7-hexahydropyrazolo[1,5-a]pyridine-3-carboxamide], for which the IC50 in assay [1] and in assay [2] was 5 to 50 nM throughout.
Consider `CC(C)(O)C(=O)N1CCC(c2cc(-c3ccc(NC(=O)c4c5n(n(-c6ccccn6)c4=O)CCOC5)cc3F)c3c(N)ncnn23)CC1` [example 14, N-(4-(4-amino-7-(1-(2-hydroxy-2-methylpropanoyl)piperidin-4-yl)pyrrolo[2,1-f][1,2,4]triazin-5-yl)-3-fluorophenyl)-2-oxo-1-(pyridin-2-yl)-2,4,6,7-tetrahydro-1H-pyrazolo[5,1-c][1,4]oxazine-3-carboxamide], for which the IC50 lay in the range of 50 to 100 nM in assay [1] and 5 to 50 nM in assay [2].
Consider `CC(C)(O)C(=O)N1CCC(c2cc(-c3ccc(NC(=O)c4c5n(n(-c6ccccn6)c4=O)CCOC5)cc3)c3c(N)ncnn23)CC1` [example 15, N-(4-(4-amino-7-(1-(2-hydroxy-2-methylpropanoyl)piperidin-4-yl)pyrrolo[2,1-f][1,2,4]triazin-5-yl)phenyl)-2-oxo-1-(pyridin-2-yl)-2,4,6,7-tetrahydro-1H-pyrazolo[5,1-c][1,4]oxazine-3-carboxamide], for which the IC50 in assay [1] and in assay [2] was 5 to 50 nM throughout.
Compound `CC(C)C(=O)N1CCC(c2cc(-c3ccc(NC(=O)c4c5n(n(-c6ccccn6)c4=O)CCCC5)cc3F)c3c(N)ncnn23)CC1` [example 17, N-(4-(4-amino-7-(1-isobutyrylpiperidin-4-yl)pyrrolo[2,1-f][1,2,4]triazin-5-yl)-3-fluorophenyl)-2-oxo-1-(pyridin-2-yl)-1,2,4,5,6,7-hexahydropyrazolo[1,5-a]pyridine-3-carboxamide] yielded a half-maximal inhibitory concentration (IC50) in assay [2] of 5 to 50 nM.
`CC(C)C(=O)N1CCC(c2cc(-c3ccc(NC(=O)c4c5n(n(-c6ccccn6)c4=O)CCCC5)cc3)c3c(N)ncnn23)CC1` [example 18, N-(4-(4-amino-7-(1-isobutyrylpiperidin-4-yl)pyrrolo[2,1-f][1,2,4]triazin-5-yl)phenyl)-2-oxo-1-(pyridin-2-yl)-1,2,4,5,6,7-hexahydropyrazolo[1,5-a]pyridine-3-carboxamide]: the 50% inhibitory concentration (IC50) in assay [1] and in assay [2] was 5 to 50 nM throughout.
As to `Nc1ncnn2c(C3CCC(O)CC3)cc(-c3ccc(NC(=O)c4c5n(n(-c6ccccc6)c4=O)CCOC5)nc3)c12` (stereo not drawn) [example 23], the IC50 in assay [2] is less than 5 nM.
`Nc1ncnn2c1c(-c1ccc(NC(=O)c3c4n(n(-c5ccccc5)c3=O)CCCC4)cc1F)cc2[C@H]1CC[C@H](O)CC1` [example 24, N-(4-(4-amino-7-((1r,4r)-4-hydroxycyclohexyl)pyrrolo[2,1-f][1,2,4]triazin-5-yl)-3-fluorophenyl)-2-oxo-1-phenyl-1,2,4,5,6,7-hexahydropyrazolo[1,5-a]pyridine-3-carboxamide]: the half-inhibitory concentration (IC50) in assay [2] is less than 5 nM.
The same measure, in the same setting: the same measure for `Nc1ncnn2c(C3CCN(C(=O)C4CC4)CC3)cc(-c3ccc(NC(=O)c4c5n(n(-c6ccccn6)c4=O)CCOC5)cc3F)c12` [example 28, N-(4-(4-amino-7-(1-(cyclopropanecarbonyl)piperidin-4-yl)pyrrolo[2,1-f][1,2,4]triazin-5-yl)-3-fluorophenyl)-2-oxo-1-(pyridin-2-yl)-2,4,6,7-tetrahydro-1H-pyrazolo[5,1-c][1,4]oxazine-3-carboxamide]: 5 to 50 nM.
Take `Nc1ncnn2c(C3CCC(O)CC3)cc(-c3ccc(NC(=O)c4c5n(n(-c6ccccn6)c4=O)CCOC5)cc3)c12` (stereo not drawn) [example 32, N-(4-(4-amino-7-((1r,4r)-4-hydroxycyclohexyl)pyrrolo[2,1-f][1,2,4]triazin-5-yl)phenyl)-2-oxo-1-(pyridin-2-yl)-2,4,6,7-tetrahydro-1H-pyrazolo[5,1-c][1,4]oxazine-3-carboxamide]: in assay [2], the IC50 lay in the range of 5 to 50 nM.
In the case of `Nc1ncnn2c1c(-c1ccc(NC(=O)c3c4n(n(-c5ccccn5)c3=O)CCOC4)cc1)cc2[C@H]1CC[C@H](O)CC1` [example 32, N-(4-(4-amino-7-((1r,4r)-4-hydroxycyclohexyl)pyrrolo[2,1-f][1,2,4]triazin-5-yl)phenyl)-2-oxo-1-(pyridin-2-yl)-2,4,6,7-tetrahydro-1H-pyrazolo[5,1-c][1,4]oxazine-3-carboxamide], the IC50 in assay [1] was less than 5 nM.
Regarding `[2H][C@]1(O)CC[C@H](c2cc(-c3ccc(NC(=O)c4c5n(n(-c6ccccc6)c4=O)CCOC5)cc3F)c3c(N)ncnn32)CC1` [example 33, N-(4-(4-amino-7-((1r,4r)-4-hydroxycyclohexyl-4-d)pyrrolo[2,1-f][1,2,4]triazin-5-yl)-3-fluorophenyl)-2-oxo-1-phenyl-2,4,6,7-tetrahydro-1H-pyrazolo[5,1-c][1,4]oxazine-3-carboxamide], the IC50 in assay [1] was in the range of 5 to 50 nM.
For the compound `CC(C)C(=O)N1CCC(c2cc(-c3ccc(NC(=O)c4c5n(n(-c6ccccc6)c4=O)CCOC5)nc3)c3c(N)ncnn23)CC1` [example 35, N-(5-(4-amino-7-(1-isobutyrylpiperidin-4-yl)pyrrolo[2,1-f][1,2,4]triazin-5-yl)pyridin-2-yl)-2-oxo-1-phenyl-2,4,6,7-tetrahydro-1H-pyrazolo[5,1-c][1,4]oxazine-3-carboxamide], the concentration for half-maximal inhibition (IC50) in assay [2] was less than 5 nM.
As for `Nc1ncnn2c(C3CCN(C(=O)C4CCC4)CC3)cc(-c3ccc(NC(=O)c4c5n(n(-c6ccccn6)c4=O)CCC5)cc3)c12` [example 40], in assay [1], the IC50 was more than 100 nM.
For `Nc1ncnn2c(C3CCN(C(=O)C4CC4)CC3)cc(-c3ccc(NC(=O)c4c5n(n(-c6ccncc6)c4=O)CCCC5)cc3)c12` [example 44], the IC50 in assay [1] fell in the range of 50 to 100 nM.
For `CC(C)(F)C(=O)N1CCC(c2cc(-c3ccc(NC(=O)c4c5n(n(-c6cccnn6)c4=O)CCCC5)cc3)c3c(N)ncnn23)CC1` [example 52], the IC50 in assay [1] lay in the range of 5 to 50 nM.

Source of the values: patent US20230279024A1, “TRIAZINE COMPOUND AND COMPOSITION AND USE THEREOF” (BEIJING FINDCURE BIOSCIENCES, LTD., priority 2020, published 2023).
